Experimental data taken from PMC11794477 (Nature Communications, 2025).

Key:
[1] = biological target: T1, Discoidin Domain Receptor Tyrosine Kinase 2 (DDR2 N456S) (Homo sapiens, UniProt Q16832, N456S); test: SelectScreen kinase profiling at […] CT-179, ATP at Km; format: biochemical
T1 sequence (Q16832 22-855 N456S): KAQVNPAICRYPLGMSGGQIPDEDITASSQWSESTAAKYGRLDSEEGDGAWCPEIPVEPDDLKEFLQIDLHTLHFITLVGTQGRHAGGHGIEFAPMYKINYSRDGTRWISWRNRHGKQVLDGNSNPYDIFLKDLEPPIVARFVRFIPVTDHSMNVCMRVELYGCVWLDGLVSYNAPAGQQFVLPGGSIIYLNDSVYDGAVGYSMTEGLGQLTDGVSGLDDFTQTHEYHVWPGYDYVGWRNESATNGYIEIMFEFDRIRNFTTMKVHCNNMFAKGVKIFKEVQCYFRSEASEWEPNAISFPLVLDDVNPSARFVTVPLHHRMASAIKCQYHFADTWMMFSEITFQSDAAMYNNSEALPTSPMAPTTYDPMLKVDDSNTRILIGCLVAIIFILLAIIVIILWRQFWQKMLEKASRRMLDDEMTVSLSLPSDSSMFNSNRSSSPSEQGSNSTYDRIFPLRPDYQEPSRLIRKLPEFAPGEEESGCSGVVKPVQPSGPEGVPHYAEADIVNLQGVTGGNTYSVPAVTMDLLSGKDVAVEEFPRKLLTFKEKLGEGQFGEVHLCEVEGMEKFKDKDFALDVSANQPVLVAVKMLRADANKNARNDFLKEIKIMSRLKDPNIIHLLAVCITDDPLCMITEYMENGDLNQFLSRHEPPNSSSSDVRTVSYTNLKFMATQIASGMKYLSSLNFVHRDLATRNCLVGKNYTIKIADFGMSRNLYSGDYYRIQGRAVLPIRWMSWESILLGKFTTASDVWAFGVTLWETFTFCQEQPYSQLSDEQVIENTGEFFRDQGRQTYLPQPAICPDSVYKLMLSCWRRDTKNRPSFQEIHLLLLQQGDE

[2] = biological target: T2, Fetal Liver Tyrosine Kinase 3 (FLT3) (Homo sapiens, UniProt P36888); test: SelectScreen kinase profiling at ATP Km, with dose-response follow-up; format: biochemical
T2 sequence (P36888 27-993): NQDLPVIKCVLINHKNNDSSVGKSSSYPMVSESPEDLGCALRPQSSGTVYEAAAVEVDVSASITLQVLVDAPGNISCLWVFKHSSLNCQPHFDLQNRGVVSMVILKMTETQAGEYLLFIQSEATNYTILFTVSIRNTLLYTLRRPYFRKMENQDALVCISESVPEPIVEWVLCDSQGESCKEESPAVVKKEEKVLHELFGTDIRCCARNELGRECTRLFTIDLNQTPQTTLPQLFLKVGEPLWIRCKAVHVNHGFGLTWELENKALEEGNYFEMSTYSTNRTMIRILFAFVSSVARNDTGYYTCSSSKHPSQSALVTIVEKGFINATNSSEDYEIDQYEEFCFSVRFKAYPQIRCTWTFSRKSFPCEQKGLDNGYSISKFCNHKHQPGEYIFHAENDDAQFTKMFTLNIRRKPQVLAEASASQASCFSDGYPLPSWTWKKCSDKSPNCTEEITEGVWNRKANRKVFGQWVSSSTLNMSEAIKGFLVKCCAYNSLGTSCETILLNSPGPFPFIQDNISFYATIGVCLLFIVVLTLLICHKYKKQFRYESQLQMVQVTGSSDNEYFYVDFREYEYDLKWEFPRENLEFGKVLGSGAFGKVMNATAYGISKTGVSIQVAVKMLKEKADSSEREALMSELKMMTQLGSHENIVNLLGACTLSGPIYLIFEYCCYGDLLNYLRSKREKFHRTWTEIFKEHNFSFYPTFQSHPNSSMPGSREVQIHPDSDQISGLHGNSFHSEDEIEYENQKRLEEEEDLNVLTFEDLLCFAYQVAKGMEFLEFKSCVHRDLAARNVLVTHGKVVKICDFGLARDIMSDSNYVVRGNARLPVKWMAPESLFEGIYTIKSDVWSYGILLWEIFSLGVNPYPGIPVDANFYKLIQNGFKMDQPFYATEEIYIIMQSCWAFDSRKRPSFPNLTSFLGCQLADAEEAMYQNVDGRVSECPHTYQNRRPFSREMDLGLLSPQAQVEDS

OLIG2 = biological target: T3, OLIG2 (Homo sapiens, UniProt Q13516); format: cell-based
T3 sequence (Q13516 1-323): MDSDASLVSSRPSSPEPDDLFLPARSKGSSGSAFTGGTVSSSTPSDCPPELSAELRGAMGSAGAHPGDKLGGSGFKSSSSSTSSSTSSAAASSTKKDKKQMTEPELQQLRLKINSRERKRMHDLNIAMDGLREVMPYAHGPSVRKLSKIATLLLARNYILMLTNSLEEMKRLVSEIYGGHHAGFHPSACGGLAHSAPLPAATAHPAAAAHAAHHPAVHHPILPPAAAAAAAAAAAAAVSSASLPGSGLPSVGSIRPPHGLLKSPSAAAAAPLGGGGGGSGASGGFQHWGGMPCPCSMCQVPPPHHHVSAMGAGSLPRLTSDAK

In the case of `Cc1cc(NCCCN(C)C)nc(NC(=O)Nc2ccc(Cl)c(Cl)c2)n1` [CT-179], the “% inhibition at 1 μM” value [1] is reported as 87, the IC50 [2] is reported as 20 nM and the IC50 (OLIG2) is reported as 1250 nM.
